{
  "source": "patent US20100168038A1",
  "about": "“USE OF COMPOUNDS IN COMBINATION WITH GAMMA-IRRADIATION FOR THE TREATMENT OF CANCER” (priority 2006, published 2010)",
  "key": {"[1]": {"test_system": "Lewis Lung Carcinoma (LLC) cells", "assay": "Tumor growth of Lewis Lung Carcinoma (LLC) in mice, compound with or without gamma-irradiation", "assay_type": "in vivo, mouse", "details": "for tumor volume / tumor volume, mean: LLC; for tumor volume: single mouse; for tumor volume, mean: group mean", "text": "(§1) Tumor Growth Experiments. Tumor cells were washed in PBS and resuspended in a volume of 200 micro-l per inoculate. The cells were then inoculated into the right flank at 10^6 per mouse and growth of the tumor was monitored by measurement two times per week. The initiation of anti-tumor treatment of the mice was to some extent individualized according to when tumor growth started in each mouse. The mice were irradiated with 4 Gy prior to tumor inoculation in order to inhibit anti-tumor immune responses. The tumor volume was calculated as the mean volume in mice with tumors growth, according to (a1×a2×a3)/2 (the numbers ai denote tumor diameter, width and depth). The time of first palpation varied between different mice, although the general pattern of growth was similar in virtually all of the mice. In most diagrams a log-scale is used to better visualize the therapeutic effects against small tumors, i.e. the presence of complete rejections. For inhibition of TPPII in vivo we made intraperitoneal injections with 13.8 mg per kg of body weight (14 micro-l of a 50 mM solution/mouse) of the Subtilisin inhibitor Z-Gly-Leu-Ala-OH (Z-GLA-OH, Bachem, Weil am Rhein, Germany) twice per week, diluted into 200 micro-l PBS. All gamma-irradiations were full body exposures.\nTable 2 contains in vivo data, showing tumor volume in mm^3, in groups of 4 mice with LLC (Lewis Lung Carcinoma). Mice were sacrificed if the tumor volume exceeded 1000 mm^3. Some mice were administered with the compounds alone; others were additionally administered with irradiation. Mice were given the compounds, and in some cases also gamma irradition (400 Rad), at days 7, 10, 14, 18 and 21."}, "[2]": {"test_system": "HeLa cells (human cervical carcinoma)", "assay": "Tumor growth of HeLa cells in CB.17 SCID mice, Z-GLA-OH with gamma-irradiation", "assay_type": "in vivo", "details": "Z-GLA-OH + gamma-irradiation 1.5 Gy/dose"}, "DBA/2-c-Myc/Bcl-xL cells": {"test_system": "DBA/2-c-Myc/Bcl-xL cells", "assay": "Tumor growth of DBA/2-c-Myc/Bcl-xL cells in DBA/2 mice", "assay_type": "in vivo, mouse", "text": "as §1\nRetroviral transduction and transplantation. […]\nDetection of GFP and YFP expression was performed using a Cyan™ ADP cytometer (Dako, Glostrup, Denmark) where after excitation at 488 nm, a 525-nm long-pass dichroic mirror was used to initially separate the signals followed by a 510/21-nm bandpass filter for detection of EGFP and a 550/30-nm band pass filter for EYFP. Data were analyzed using FlowJo software (Tree Star, Inc., San Carlos, Calif.). […]"}, "[3]": {"assay": "Toxicity study in vivo, single agent", "details": "doses up to 100 mg/kg, preliminary study"}, "[4]": {"details": "compound + gamma irradiation (400 Rad), day 10"}, "[5]": {"details": "compound + gamma irradiation (400 Rad), day 14"}, "[6]": {"details": "compound + gamma irradiation (400 Rad), day 18"}, "[7]": {"details": "compound + gamma irradiation (400 Rad), day 21"}},
  "note": "Where “and” joins values, the source holds several entries; their conditions need not be identical. Equal values may be shown once. Residues, ends and D or L forms follow the SMILES beside them.",
  "data": [
    {"smiles": "CC(C)C[C@H](NC(=O)CNC(=O)OCc1ccccc1)C(=O)N[C@@H](C)C(=O)O", "note": "[Z-GLA-OH, Z-Gly-Leu-Ala-OH] (HELM PEPTIDE1{[O=C(OCc1ccccc1)[*:2]].G.L.A}$$$$V2.0)", "values": [
      {"measurement": "tumor volume", "setting": "[1]; compound + gamma irradiation (400 Rad) at days 7, 10, 14, 18, 21, day 7", "result": "4.0 mm^3 and 6.0 mm^3 (2×) and 0.0 mm^3"},
      {"measurement": "tumor volume, mean", "setting": "[1]; compound + gamma irradiation (400 Rad), day 7", "result": 4.00, "unit": "mm^3"},
      {"measurement": "tumor volume, mean", "setting": "[1]; [4]", "result": 64.00, "unit": "mm^3"},
      {"measurement": "tumor volume", "setting": "[1]; [4]", "result": "48.0 mm^3 and 128.0 mm^3 and 40.0 mm^3 (2×)"},
      {"measurement": "tumor volume, mean", "setting": "[1]; [5]", "result": 84.00, "unit": "mm^3"},
      {"measurement": "tumor volume", "setting": "[1]; [5]", "result": "72.0 mm^3 (2×) and 144.0 mm^3 and 48.0 mm^3"},
      {"measurement": "tumor volume, mean", "setting": "[1]; [6]", "result": 25.38, "unit": "mm^3"},
      {"measurement": "tumor volume", "setting": "[1]; [6]", "result": "32 mm^3 (2×) and 24 mm^3 and 13.5 mm^3"},
      {"measurement": "tumor volume, mean", "setting": "[1]; [7]", "result": 7.00, "unit": "mm^3"},
      {"measurement": "tumor volume", "setting": "[1]; [7]", "result": "13.5 mm^3 (2×) and 0.5 mm^3 (2×)"},
      {"measurement": "tumor volume, mean", "setting": "[1]; compound alone, day 7", "result": 5.88, "unit": "mm^3"},
      {"measurement": "tumor volume", "setting": "[1]; compound alone, day 7 after tumor inoculation", "result": "4.0 mm^3 and 0.0 mm^3 and 6.0 mm^3 and 13.5 mm^3"},
      {"measurement": "tumor volume, mean", "setting": "[1]; compound alone, day 10", "result": 150.25, "unit": "mm^3"},
      {"measurement": "tumor volume", "setting": "[1]; compound alone, day 10", "result": "256.0 mm^3 and 192.0 mm^3 and 9.0 mm^3 and 144.0 mm^3"},
      {"measurement": "tumor volume, mean", "setting": "[1]; compound alone, day 14", "result": 748, "unit": "mm^3"},
      {"measurement": "tumor volume", "setting": "[1]; compound alone, day 14", "result": "660.0 mm^3 and 864.0 mm^3 and 720.0 mm^3"},
      {"measurement": "tumor volume, mean", "setting": "[1]; compound alone, day 18", "result": 1300.67, "unit": "mm^3"},
      {"measurement": "tumor volume", "setting": "[1]; compound alone, day 18", "result": "864 mm^3 and 1470 mm^3 and 1568 mm^3"},
      {"measurement": "tumor volume", "setting": "[1]; compound alone, day 21", "result": 2048.0, "unit": "mm^3"},
      {"measurement": "effect on LLC tumors", "setting": "[1]; Z-GLA-OH only, in the absence of gamma-irradiation", "result": "no effect"},
      {"measurement": "tumor response", "setting": "[1]; established LLC tumors, gamma-irradiation 4 Gy doses + Z-GLA-OH injection", "result": "complete regression"},
      {"measurement": "tumor response", "setting": "[2]", "result": "strong tumor regression"},
      {"measurement": "tumor cells in lung, spleen or liver", "setting": "DBA/2-c-Myc/Bcl-xL cells; Z-GLA-OH 13.8 mg/kg + gamma-irradiation, flow cytometry, histology", "result": "failed to find tumor cells"},
      {"measurement": "tumor response", "setting": "DBA/2-c-Myc/Bcl-xL cells; Z-GLA-OH only, no gamma-irradiation", "result": "no reduction of tumor size"},
      {"measurement": "tumor response", "setting": "DBA/2-c-Myc/Bcl-xL cells; established DBA/2-c-Myc/Bcl-xL tumors, Z-GLA-OH 13.8 mg/kg + 4 Gy doses of gamma-irradiation", "result": "complete tumor regression"},
      {"measurement": "toxicity in vivo", "setting": "[3]", "result": "minor effects"}
    ]}
  ]
}
